From patent US7803792B2, “Quaternary ammonium compounds” (Asahi Kasei Pharma Corporation, priority 2002, dated 2010)

Tests used:
[1] = tested on: Cholic acid-loaded rat model; assay: Bile acid-decreasing effect in portal vein of rats loaded with cholic acid (Test Example 2); assay type: in vivo; settings: 0.1 mg/kg oral with cholic acid 200 mg/kg, portal vein blood after 2 hours
Method: Bile Acid-Decreasing Effect in Portal Vein of Rats Loaded With Cholic Acid
In this test example, the test for confirming the bile acid-decreasing effect in portal vein of cholic acid-loaded rats was carried out according to the method described in Pharmacology and Therapeutics [Jpn Pharmacol. Ther., Vol. 24 Supplement, 1996, 103 (S-577)-110 (S-584)].
That is, 7 to 9 weeks old SD (IGS) rats were starved on the day before the test and thereafter. […] After 2 hours from the administration, a sample of blood was taken from a portal vein and total serum bile acid level was measured to study the effect of the test compound (n=6). Further, as a control group, a group (n=6) loaded with cholic acid (200 mg/kg) only was prepared and the same test procedure was followed. A commercially available kit (trade name: SOTANJUSAN-TEST WAKO-(SOTANJUSAN=total bile acid), manufactured by WAKO PURE CHEMICAL […], LTD.) was used for the measurement of bile acid. Assuming the value of the control group, which is a group in which no test compound was used, as 100%, the rate of decrease (percentage (%) of decrease) of the bile acid level when a fixed amount of the test compound was used was determined.

[2] = target: T1, human IBAT (Homo sapiens, UniProt Q12908); assay: In vitro assay of temporarily expressed human IBAT transporter using Cos 7 cells (Test Example 8); assay type: cell-based; settings: Cos 7 cells temporarily expressing human IBAT; [3H] taurocholate 8 μM, 37° C., 60 minutes
T1 construct: expressed in transfected cells; host or cells: Cos 7
T1 sequence (Q12908 1-348): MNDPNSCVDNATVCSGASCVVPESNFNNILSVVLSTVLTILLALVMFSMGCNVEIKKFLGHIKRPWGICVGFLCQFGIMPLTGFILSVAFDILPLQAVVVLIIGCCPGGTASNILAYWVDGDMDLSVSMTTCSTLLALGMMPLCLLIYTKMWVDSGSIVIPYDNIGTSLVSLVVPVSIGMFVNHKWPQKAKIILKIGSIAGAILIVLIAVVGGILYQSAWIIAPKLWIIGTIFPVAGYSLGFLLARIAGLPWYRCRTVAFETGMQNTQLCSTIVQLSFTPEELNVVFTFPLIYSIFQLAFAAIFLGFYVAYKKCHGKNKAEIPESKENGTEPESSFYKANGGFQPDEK
Summary of the method: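 Cos 7 cells transiently transfected with human or rat IBAT cDNA, assayed one day later in Hank's buffer with 25 mM glucose, 10 mM HEPES (pH 7.4) plus compound. Uptake of 8 μM [^3H]taurocholate over 60 min at 37 °C, stopped with 1 mM taurocholate washes; lysate radioactivity by scintillation counting.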

[3] = target: T2, rat IBAT (Rattus norvegicus, UniProt Q62633); assay: In vitro assay of temporarily expressed rat IBAT transporter using Cos 7 cells (Test Example 8); assay type: cell-based; settings: Cos 7 cells temporarily expressing rat IBAT; [3H] taurocholate 8 μM, 37° C., 60 minutes
T2 construct: expressed in transfected cells; host or cells: Cos 7
T2 sequence (Q62633 1-348): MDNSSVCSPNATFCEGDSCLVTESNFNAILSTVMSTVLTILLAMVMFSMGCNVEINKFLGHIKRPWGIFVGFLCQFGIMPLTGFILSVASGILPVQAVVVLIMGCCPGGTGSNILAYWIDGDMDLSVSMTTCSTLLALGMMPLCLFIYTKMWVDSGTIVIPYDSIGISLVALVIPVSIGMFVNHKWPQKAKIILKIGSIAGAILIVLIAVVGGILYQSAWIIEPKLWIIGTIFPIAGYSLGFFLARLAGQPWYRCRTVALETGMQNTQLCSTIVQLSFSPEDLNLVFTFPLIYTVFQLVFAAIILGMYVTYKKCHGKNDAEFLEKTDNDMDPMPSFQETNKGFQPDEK
Method: In Vitro Assay of Compounds Which Inhibit Temporarily Expressed Human IBAT Transporter or Rat IBAT Transporter Using Cos 7 Cells
In this test example, the in vitro assay of the compounds which inhibit temporarily expressed human IBAT transporter or rat IBAT transporter using Cos cells was carried out according to the method described in Am. J. Physiol., 274, G157-169.
That is, […] Cos 7 were inoculated on a 24-well cell plate. One day later, 0.3 μg per well of cDNA of a human IBAT or a rat IBAT was transfected by using FuGENE6 (manufactured by ROCHE PHARMACEUTICAL CO., LTD.). For the assay, the cells cultured for one day after the transfection were used and the following procedure was followed. The cells were washed once with an assay buffer, Hank's buffer solution containing 25 mM glucose and with 10 mM HEPES (pH 7.4), and then the assay buffer was replaced by an assay buffer to which the test compound was added. After adding [^3H] taurocholate to a final concentration of 8 μM, the cells were incubated at 37° C. for 60 minutes. [^3H] taurocholate was allowed to be incorporated in Cos 7 cells through human IBAT or rat IBAT. The reaction was stopped by washing twice with a buffer prepared by adding 1 mM taurocholate to the assay buffer and lyzing the cells with 0.2M NaOH. Measurement of radioactivity was carried out by introducing the cell lyzate in 4 ml of liquid scintillation cocktail, stirring the mixture well, and then measuring the radioactivity by a scintillation counter.

[4] = tested on: Caco 2 cells; assay: Toxicity with respect to alimentary canal: cytotoxicity to Caco 2, LDH activity (Test Example 12); assay type: cell-based, human; settings: LDH activity after 2 hours, relative to cytolytic agent = 100%
Method: Toxicity With Respect to Alimentary Canal
To evaluate the toxicity of the compounds of the present invention to the alimentary canal, the cytotoxicity to Caco 2, which is a human originated small intestine epithelial cell line, was tested by referring to the method of Bestwick C S et al. [Biochimica et Biophysica Acta 1474: 47-55, 1999].
That is, Caco 2 cells (purchased from ATCC) were inoculated on a 96-well plate such that there were 10,000 cells/well [MEM-E medium, 10% FBS (Fetal Bovine Serum), 1% NEAA (Non Essential Amino Acid) solution, (both manufactured by GIBCO PHARMACEUTICAL COMPANY)]. After culturing for 48 hours, the test compounds were diluted with the culture medium and added to the respective wells. After 2 hours, 50 μl of the culture broth was collected and the LDH activity in the collected culture broth was measured by using an LDH activity measuring kit (CytoTox 96 Non-Radioactive Cytotoxicity Assay, manufactured by PROMEGA CORPORATION). Relative activities were calculated assuming the LDH activity as 100% when the Caco 2 cells were treated with the cytolytic agent and the obtained relative activities were taken as cytotoxicities to Caco 2 cell.

IC50 [2] [nM] | IC50 [3] [nM] | Compound | Rate of decrease (%) of bile acid ([1]; HCO-60 0.1%) [%] | Toxicity (%) to Caco 2 ([4]; 3 μM) [%] | Toxicity (%) to Caco 2 ([4]; 10 μM) [%] | Toxicity (%) to Caco 2 ([4]; 30 μM) [%] | Rate of decrease (%) of bile acid ([1]; Tween 20 0.05%) [%]
28 | 9 | CCCCC1(CCCC)CS(=O)(=O)c2ccc(N(C)C)cc2C(c2cccc(NC(=S)CCCCC[N+]34CCC(c5ccccc5)(CC3)CC4)c2)N1 (centres unmarked) [Example 3853] | 36 | <1 | <1 | <1 | –
36 | 9 | CCCCC1(CCCC)CS(=O)(=O)c2ccc(N(C)C)cc2C(c2cccc(NC(=S)CCCCCCC[N+]34CCC(CC3)CC4)c2)N1 (centres unmarked) [Example 3932] | – | – | – | – | 30
37 | 5 | CCCCC1(CCCC)CS(=O)(=O)c2ccc(N(C)C)cc2C(c2cccc(NC(=S)Nc3ccc(C[N+]45CCC(CC4)CC5)cc3)c2)N1.[Br-] (centres unmarked) [Example 3695] | 23 | <1 | <1 | <1 | –

Compound | IC50 [2] [nM] | IC50 [3] [nM] | Rate of decrease (%) of bile acid ([1]; HCO-60 0.1%) [%] | Toxicity (%) to Caco 2 ([4]; 3 μM) [%] | Toxicity (%) to Caco 2 ([4]; 10 μM) [%] | Toxicity (%) to Caco 2 ([4]; 30 μM) [%] | Rate of decrease (%) of bile acid ([1]; Tween 20 0.05%) [%]
CCCCC1(CCCC)CS(=O)(=O)c2ccc(N(C)C)cc2C(c2cccc(NC(=S)NCCC[N+]34CCC(CC3)CC4)c2)N1 (centres unmarked) [Example 9, 1-(3-{3-[3,3-Dibutyl-7-dimethylamino-1,1-dioxo-2,3,4,5-tetrahydro-1,4-benzothiazepin-5-yl)phenyl]thioureido}-propyl)-1-azoniabicyclo[2.2.2]octane bromide] | 76 | 36 | – | – | – | – | –
